Laboratory results reported in the supplement of paper PMC10307832.

Tests used:
Experiment in all cases: relative viability (nuclei count vs DMSO), 5 days (fraction); higher = more cells survive
[1] = compound: CC(C)C[C@@H](C(=O)N[C@H](C(=O)OC1CCCC1)c1ccccc1)[C@H](O)C(=O)NO [Tosedostat] + CC(=O)c1c(C)c2cnc(Nc3ccc(N4CCNCC4)cn3)nc2n(C2CCCC2)c1=O [Palbociclib] (partner 0.5 µM)
Outline: (§1)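 Relative viability is defined as nuclei in treated wells over nuclei in vehicle wells. Duplicate plates were run and medians reported. Lung cancer cell lines in 1536-well plates were dosed by pin tool one day after seeding, with one drug or with a fixed anchor-drug dose plus five library-drug doses (not always all listed) in √10 steps, and nuclei were counted after 5 days.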

[2] = compound: CC1=NN=C(O1)C2=NN=C(C=C2)N3CCC(CC3)OC4=C(C=CC(=C4)F)Cl + CC(=O)c1c(C)c2cnc(Nc3ccc(N4CCNCC4)cn3)nc2n(C2CCCC2)c1=O [Palbociclib] (partner 0.5 µM)
Outline: as §1

[3] = compound: CC1=NN=C(O1)C2=NN=C(C=C2)N3CCC(CC3)OC4=C(C=CC(=C4)F)Cl + CS(=O)(=O)N1CCN(Cc2cc3nc(-c4cccc5[nH]ncc45)nc(N4CCOCC4)c3s2)CC1 [Pictilisib] (partner 1 µM)
Outline: as §1

[4] = compound: CC1=NN=C(O1)C2=NN=C(C=C2)N3CCC(CC3)OC4=C(C=CC(=C4)F)Cl + O=C(c1cc(Cc2n[nH]c(=O)c3ccccc23)ccc1F)N1CCN(C(=O)C2CC2)CC1 [Olaparib] (partner 8 µM)
Outline: as §1

## EKVX
[1]; first compound 0.02 µM
  relative viability: 0.368
[1]; first compound 0.06325 µM
  relative viability: 0.374
[1]; first compound 0.2 µM
  relative viability: 0.403
[1]; first compound 0.6325 µM
  relative viability: 0.396
[1]; first compound 2 µM
  relative viability: 0.389
[2]; first compound 0.253 µM
  relative viability: 0.282
[2]; first compound 0.8 µM
  relative viability: 0.257
[2]; first compound 2.53 µM
  relative viability: 0.286
[2]; first compound 8 µM
  relative viability: 0.292
[3]; first compound 0.253 µM
  relative viability: 0.323
[3]; first compound 0.8 µM
  relative viability: 0.31
[3]; first compound 2.53 µM
  relative viability: 0.388
[3]; first compound 8 µM
  relative viability: 0.345
[4]; first compound 0.253 µM
  relative viability: 0.402
[4]; first compound 0.8 µM
  relative viability: 0.381
[4]; first compound 2.53 µM
  relative viability: 0.464
[4]; first compound 8 µM
  relative viability: 0.494

## EMC-BAC-2
[1]; first compound 0.02 µM
  relative viability: 0.516
[1]; first compound 0.06325 µM
  relative viability: 0.522
[1]; first compound 0.2 µM
  relative viability: 0.536
[1]; first compound 0.6325 µM
  relative viability: 0.484
[1]; first compound 2 µM
  relative viability: 0.489
[2]; first compound 0.253 µM
  relative viability: 0.492
[2]; first compound 0.8 µM
  relative viability: 0.513
[2]; first compound 2.53 µM
  relative viability: 0.502
[2]; first compound 8 µM
  relative viability: 0.513
[3]; first compound 0.253 µM
  relative viability: 0.534
[3]; first compound 0.8 µM
  relative viability: 0.531
[3]; first compound 2.53 µM
  relative viability: 0.572
[3]; first compound 8 µM
  relative viability: 0.454
[4]; first compound 0.253 µM
  relative viability: 0.376
[4]; first compound 0.8 µM
  relative viability: 0.414
[4]; first compound 2.53 µM
  relative viability: 0.457
[4]; first compound 8 µM
  relative viability: 0.441

## EPLC-272H
[1]; first compound 0.02 µM
  relative viability: 0.337
[1]; first compound 0.06325 µM
  relative viability: 0.311
[1]; first compound 0.2 µM
  relative viability: 0.348
[1]; first compound 0.6325 µM
  relative viability: 0.303
[1]; first compound 2 µM
  relative viability: 0.248
[2]; first compound 0.253 µM
  relative viability: 0.281
[2]; first compound 0.8 µM
  relative viability: 0.314
[2]; first compound 2.53 µM
  relative viability: 0.277
[2]; first compound 8 µM
  relative viability: 0.34
[3]; first compound 0.253 µM
  relative viability: 0.399
[3]; first compound 2.53 µM
  relative viability: 0.41
[3]; first compound 8 µM
  relative viability: 0.309
[4]; first compound 0.253 µM
  relative viability: 0.744
[4]; first compound 0.8 µM
  relative viability: 0.742
[4]; first compound 2.53 µM
  relative viability: 0.758
[4]; first compound 8 µM
  relative viability: 0.657

## H3255
[1]; first compound 0.02 µM
  relative viability: 0.303
[1]; first compound 0.06325 µM
  relative viability: 0.32
[1]; first compound 0.2 µM
  relative viability: 0.342
[1]; first compound 0.6325 µM
  relative viability: 0.331
[1]; first compound 2 µM
  relative viability: 0.319
[2]; first compound 0.253 µM
  relative viability: 0.296
[2]; first compound 0.8 µM
  relative viability: 0.305
[2]; first compound 2.53 µM
  relative viability: 0.309
[2]; first compound 8 µM
  relative viability: 0.321
[3]; first compound 0.253 µM
  relative viability: 0.505
[3]; first compound 0.8 µM
  relative viability: 0.438
[3]; first compound 2.53 µM
  relative viability: 0.433
[3]; first compound 8 µM
  relative viability: 0.397
[4]; first compound 0.253 µM
  relative viability: 0.483
[4]; first compound 0.8 µM
  relative viability: 0.498
[4]; first compound 2.53 µM
  relative viability: 0.5
[4]; first compound 8 µM
  relative viability: 0.527

## HARA
[1]; first compound 0.02 µM
  relative viability: 0.325
[1]; first compound 0.06325 µM
  relative viability: 0.255
[1]; first compound 0.2 µM
  relative viability: 0.262
[1]; first compound 0.6325 µM
  relative viability: 0.232
[1]; first compound 2 µM
  relative viability: 0.265
[2]; first compound 0.253 µM
  relative viability: 0.233
[2]; first compound 0.8 µM
  relative viability: 0.25
[2]; first compound 2.53 µM
  relative viability: 0.235
[2]; first compound 8 µM
  relative viability: 0.222
[3]; first compound 0.253 µM
  relative viability: 0.263
[3]; first compound 0.8 µM
  relative viability: 0.282
[3]; first compound 2.53 µM
  relative viability: 0.336
[3]; first compound 8 µM
  relative viability: 0.191
[4]; first compound 0.253 µM
  relative viability: 0.331
[4]; first compound 0.8 µM
  relative viability: 0.244
[4]; first compound 2.53 µM
  relative viability: 0.317
[4]; first compound 8 µM
  relative viability: 0.256

## HCC-15
[1]; first compound 0.02 µM
  relative viability: 0.759
[1]; first compound 0.06325 µM
  relative viability: 0.688
[1]; first compound 0.2 µM
  relative viability: 0.572
[1]; first compound 0.6325 µM
  relative viability: 0.708
[1]; first compound 2 µM
  relative viability: 0.653
[2]; first compound 0.253 µM
  relative viability: 0.427
[2]; first compound 0.8 µM
  relative viability: 0.392
[2]; first compound 2.53 µM
  relative viability: 0.414
[2]; first compound 8 µM
  relative viability: 0.418
[3]; first compound 0.253 µM
  relative viability: 0.583
[3]; first compound 0.8 µM
  relative viability: 0.566
[3]; first compound 2.53 µM
  relative viability: 0.6
[3]; first compound 8 µM
  relative viability: 0.546
[4]; first compound 0.253 µM
  relative viability: 0.354
[4]; first compound 0.8 µM
  relative viability: 0.305
[4]; first compound 2.53 µM
  relative viability: 0.348
[4]; first compound 8 µM
  relative viability: 0.337

## HCC-44
[1]; first compound 0.02 µM
  relative viability: 1.05
[1]; first compound 0.06325 µM
  relative viability: 0.982
[1]; first compound 0.2 µM
  relative viability: 1.01
[1]; first compound 0.6325 µM
  relative viability: 0.983
[1]; first compound 2 µM
  relative viability: 0.928
[2]; first compound 0.253 µM
  relative viability: 0.366
[2]; first compound 0.8 µM
  relative viability: 0.434
[2]; first compound 2.53 µM
  relative viability: 0.412
[2]; first compound 8 µM
  relative viability: 0.355
[3]; first compound 0.253 µM
  relative viability: 0.42
[3]; first compound 0.8 µM
  relative viability: 0.444
[3]; first compound 2.53 µM
  relative viability: 0.578
[3]; first compound 8 µM
  relative viability: 0.472
[4]; first compound 0.253 µM
  relative viability: 0.295
[4]; first compound 0.8 µM
  relative viability: 0.358
[4]; first compound 2.53 µM
  relative viability: 0.346
[4]; first compound 8 µM
  relative viability: 0.363

## HCC-78
[1]; first compound 0.02 µM
  relative viability: 0.502
[1]; first compound 0.06325 µM
  relative viability: 0.46
[1]; first compound 0.2 µM
  relative viability: 0.41
[1]; first compound 0.6325 µM
  relative viability: 0.486
[1]; first compound 2 µM
  relative viability: 0.495
[2]; first compound 0.253 µM
  relative viability: 0.454
[2]; first compound 0.8 µM
  relative viability: 0.366
[2]; first compound 2.53 µM
  relative viability: 0.473
[2]; first compound 8 µM
  relative viability: 0.457
[3]; first compound 0.253 µM
  relative viability: 0.204
[3]; first compound 0.8 µM
  relative viability: 0.234
[3]; first compound 2.53 µM
  relative viability: 0.11
[3]; first compound 8 µM
  relative viability: 0.184
[4]; first compound 0.253 µM
  relative viability: 0.454
[4]; first compound 0.8 µM
  relative viability: 0.384
[4]; first compound 2.53 µM
  relative viability: 0.387
[4]; first compound 8 µM
  relative viability: 0.456

## HCC-366
[1]; first compound 0.02 µM
  relative viability: 0.389
[1]; first compound 0.06325 µM
  relative viability: 0.43
[1]; first compound 0.2 µM
  relative viability: 0.372
[1]; first compound 0.6325 µM
  relative viability: 0.391
[1]; first compound 2 µM
  relative viability: 0.369
[2]; first compound 0.253 µM
  relative viability: 0.063
[2]; first compound 0.8 µM
  relative viability: 0.124
[2]; first compound 2.53 µM
  relative viability: 0.132
[2]; first compound 8 µM
  relative viability: 0.112
[3]; first compound 0.253 µM
  relative viability: 0.12
[3]; first compound 0.8 µM
  relative viability: 0.197
[3]; first compound 2.53 µM
  relative viability: 0.15
[3]; first compound 8 µM
  relative viability: 0.142
[4]; first compound 0.253 µM
  relative viability: 0.117
[4]; first compound 0.8 µM
  relative viability: 0.139
[4]; first compound 2.53 µM
  relative viability: 0.258
[4]; first compound 8 µM
  relative viability: 0.157
